What was measured:
[1] = test system: Survivin in CD34+ UCB cells; test: Intracellular Survivin by FACS, human CD34+ UCB cells; type: cell-based; settings: 24 hours post-pulse, vs control
Source text: All antibodies were purchased from BD Biosciences unless otherwise noted. For detection and sorting of murine KL and SKL cells, streptavidin conjugated with PE-Cy7 (to stain for biotinylated MACS lineage antibodies (Miltenyi Biotech, Auburn, Calif.)), c-kit-APC, Sca-1-PE or APC-Cy7, CD45. 1-PE and CD45.2-FITC were used. UCB CD34^+ cells were detected using anti-human-CD34-APC. For multilineage analysis, APC-Cy7-Mac-1, PE-Cy7-B-220 and APC-CD3 were used. EP receptors were detected with anti EP1, EP2, EP3 and EP4 rabbit IgG (Cayman Chemicals) and secondary staining with FITC-goat-anti-rabbit IgG (Southern Biotech, Birmingham, Ala.). CXCR4 expression was analyzed using streptavidin-PECy7, c-kit-APC, Sca-1-APC-Cy7, and CXCR4-PE. Apoptosis was measured with FITC-Annexin-V. For Survivin and active caspase-3 detection, cells were permeabilized and fixed using the CytoFix/CytoPerm kit (BD) and stained with anti-active-caspase-3-FITC Flow Kit (BD) or Survivin-PE (R&D Systems).
Expression of EP receptors, CXCR4 and Survivin Replicate Lin^neg cell samples from CD45.2 mice were stained for SKL and each of the EP receptors and surface receptor expression on KL and SKL cells determined by FACS. […] Replicate cells were stained for CD34 and each of the EP receptors and surface expression determined by FACS. […]

SKL cells [2] = test: Apoptosis assay (Annexin-V+ SKL cells); type: cell-based, mouse; settings: for apoptosis of SKL cells in vitro: 0.1 nanoMolar-1 microMolar
Method: Lin^neg cells were treated on ice with 0.1 nanoMolar to 1 microMolar dmPGE2 or vehicle control, washed and incubated in RPMI-1640+2% FBS, without growth factors at 37° C. to induce apoptosis. After 24 hours, cells were stained for SKL and Annexin-V and the proportion of Annexin-V^+ SKL cells was determined by FACS.
Apoptosis is an important regulatory process in normal and malignant hematopoiesis and PGE2 has been implicated in anti-apoptotic signalling. Moreover, activation of cAMP, a downstream signaling molecule of EP receptors, inhibits apoptosis in CD34^+ cells. […] To evaluate an effect of dmPGE2 on HSPC survival, Lin^neg cells were pulsed with 0.1 nanoMolar-1 microMolar dmPGE2 or vehicle and cultured in serum-reduced culture medium without growth factors.

SKL cells [3] = test: Transwell migration of murine SKL cells to rmSDF-1α; type: cell-based, mouse; settings: pulsed 2 hours, cultured 16 hours, migration 4 hours; vs vehicle
Method: Freshly isolated Lineage^neg mouse bone marrow cells were pulsed with dmPGE2 or vehicle for 2 hours, washed and resuspended in media with 10% HI-FCS and cultured at 37° C. for 16 hours. After incubation, cells were washed, resuspended in RPMI/0.5% BSA and allowed to migrate in transwells to rmSDF-1α for 4 hours. Total cell migration was measured by flow cytometry. Referring now to FIG. 9, total SKL cell migration was higher for cells pulsed with dmPGE2. Data are the Mean±SEM percent migration for 3 experiments. ^†P<0.05 for dmPGE2 treated cells compared to cells treated with vehicle.

[4] = test system: CXCR4 on human CD34+ UCB cells; test: CXCR4 surface expression by FACS after pulse exposure, human cells; type: cell-based
Source text: Expression of EP receptors, CXCR4 and Survivin Replicate Lin^neg cell samples from CD45.2 mice were stained for SKL and each of the EP receptors and surface receptor expression on KL and SKL cells determined by FACS. For human EP receptors, UCB was obtained from Wishard Hospital, Indianapolis, Ind. with Institutional Review Board approval. Mononuclear cells were isolated on Ficoll-Paque™ Plus (Amersham Biosciences) and CD34^+ cells positively selected with MACS microbeads (Miltenyi Biotech) (Fukuda and Pelus, 2001). Replicate cells were stained for CD34 and each of the EP receptors and surface expression determined by FACS. […] Cells were stained for SKL (murine cells) and CXCR4, Survivin, and/or active caspase-3, as described above, and analyzed by FACS.
To evaluate CXCR4, Lineage^neg mouse bone marrow cells or CD34^+ UCB were treated on ice with either 1 microMolar dmPGE2 or vehicle control for 2 hours, washed, and then cultured in RPMI-1640/10% HI-FBS at 37° C. for 24 hours, stained for SKL (murine cells) or CD34 (human) and CXCR4 and analyzed by FACS. […] Data are expressed as Mean±SEM % change in mean fluorescence intensity (MFI) of CXCR4 due to treatment with dmPGE2 or vehicle (n=3).

CXCR4 mRNA = test: QRT-PCR of CXCR4 mRNA; type: cell-based; settings: for time post-exposure of (maximal) CXCR4 mRNA upregulation: vs vehicle
Method: Total RNA was obtained using the absolutely RNA purification kit (Stratagene, La Jolla, Calif.). A constant amount of RNA was reverse transcribed with random primers (Promega, Madison, Wis.) and MMLV-reverse transcriptase (Promega) in a volume of 50 microLiter with 1 milliMolar dNTPs and RNase inhibitor as described (Fukuda and Pelus, 2001). DNase and RNase free water (Ambion, Austin, Tex.) was added to obtain a final concentration equivalent of 10 nanogram RNA/microLiter and 5 microLiter used for QRT-PCR. Primers for SYBR Green QRTPCR were designed to produce an amplicon size of 75-150 bp. QRT-PCR was performed in a total volume of 30 microLiter using Platinum SYBR Green qPCR supermix UDG with Rox (Invitrogen, Carlsbad, Calif.) in an ABI-7000 (Applied Biosystems, Carlsbad, Calif.), with an activation step of 50° C. for 2 min, denaturation at 95° C. for 2 min and amplification for 45 cycles at 95° C.-15 sec, 50° C.-30 sec, 72° C.-30 sec, followed by dissociation to confirm that only one product was obtained.
Referring now to FIG. 4A, the stromal-cell-derived factor-1 alpha (SDF-1a)/CXCR4 axis has been implicated in HSPC trafficking and homing. The study evaluated whether the improved homing of dmPGE2-treated HSPC was the result of increased SDF-1a/CXCR4 signalling.
To evaluate CXCR4, Lineage^neg mouse bone marrow cells or CD34^+ UCB were treated on ice with either 1 microMolar dmPGE2 or vehicle control for 2 hours, washed, and then cultured in RPMI-1640/10% HI-FBS at 37° C. for 24 hours, stained for SKL (murine cells) or CD34 (human) and CXCR4 and analyzed by FACS. Referring now to FIG. 4A, CXCR4 expression on murine KL and SKL cells and human CD34^+ UCB cells 24 hours after treatment with dmPGE2. Data are expressed as Mean±SEM % change in mean fluorescence intensity (MFI) of CXCR4 due to treatment with dmPGE2 or vehicle (n=3).

UCB CD34+ cells = test: Migration of human UCB CD34+ cells to rhSDF-1; type: cell-based; settings: pulse exposure
Method: Freshly isolated UCB CD34^+ cells were pulsed with dmPGE2 or vehicle for 2 hours, washed and resuspended in media with 10% HI-FCS and cultured at 37° C. for 16 hours. After incubation, cells were washed, resuspended in RPMI/0.5% BSA and migration to rhSDF-1 measured by flow cytometry. To block the CXCR4 receptor, replicate cells were incubated with 5 micrograms/ml AMD3100 for 30 minutes prior to the migration assay. Referring now to FIG. 10, the data are the Mean±SEM percentage migration for 3 experiments.

| SMILES | increase in intracellular Survivin, CD34+ UCB cells [1] | apoptosis of SKL cells in vitro (SKL cells [2]) | inhibition of apoptosis in SKL cells (SKL cells [2]; at 1 microMolar, serum-reduced medium without growth factors, 24 hours) | total SKL cell migration to rmSDF-1α (SKL cells [3]) | CXCR4 expression on CD34+ UCB cells ([4]; pulse exposure, 24 hours) | increase in CXCR4 mRNA (CXCR4 mRNA) | time post-exposure of (maximal) CXCR4 mRNA upregulation (CXCR4 mRNA) | increase in CXCR4 expression on CD34+ UCB ([4]; after PGE2 exposure) | migration of human CD34+ cells to SDF-1α (UCB CD34+ cells) |
| --- | --- | --- | --- | --- | --- | --- | --- | --- | --- |
| CCCCC(C)(C)[C@H](O)/C=C/[C@H]1[C@H](O)CC(=O)[C@@H]1C/C=C\CCCC(=O)O [dmPGE2, 16,16-dimethyl prostaglandin E2] | 2.4 fold | reduced apoptosis in SKL cells in a dose dependent fashion | ~65% | higher | increased CXCR4 expression | 2.65 fold | 6 h |  |  |
| CCCCC[C@H](O)/C=C/[C@H]1[C@H](O)CC(=O)[C@@H]1C/C=C\CCCC(=O)O [PGE2, Prostaglandin E2] |  | dose-dependently decreased apoptosis |  |  |  |  | 6 h | 17.3% | Increases Migration |
